# Measured values reported in patent publication US20150119267A1, “INHIBITION OF COLONY STIMULATING FACTOR-1 RECEPTOR SIGNALING FOR THE TREATMENT OF BRAIN CANCER” (SLOAN-KETTERING INSTITUTE FOR CANCER RESEARCH, priority 2012, published 2015).
# System: established PDG gliomas
# Assay: Short-term 7 day trial on established tumors (MRI, histology)
# Type: in vivo, mouse
# Conditions: for Apoptosis (% CC3+) / Macrophages (% CD68+) / Phagocytic Capacity / Proliferation (% BrdU+Olig2+) / Total DAPI+ Cells / Tumor Cells (% Olig2+) / Vasculature (CD31 MVD): relative to vehicle
smiles,measurement,setting,value
CNC(=O)c1cc(Oc2ccc3nc(N[C@@H]4CCCC[C@H]4O)sc3c2)ccn1 [BLZ945],Apoptosis (% CC3+),"BLZ945, Day 3",+17-fold
same,Macrophages (% CD68+),"BLZ945, Day 3",+3-fold
same,Phagocytic Capacity,"BLZ945, Day 3",+11.5-fold
same,Proliferation (% BrdU+Olig2+),"BLZ945, Day 3",−91%
same,Total DAPI+ Cells,"BLZ945, Day 3",−72%
same,Tumor Cells (% Olig2+),"BLZ945, Day 3",−27%
same,Apoptosis (% CC3+),"BLZ945, Day 7",+6-fold
same,Macrophages (% CD68+),"BLZ945, Day 7",+2-fold
same,Phagocytic Capacity,"BLZ945, Day 7",+5.0-fold
same,Proliferation (% BrdU+Olig2+),"BLZ945, Day 7",−67%
same,Total DAPI+ Cells,"BLZ945, Day 7",−80%
same,Tumor Cells (% Olig2+),"BLZ945, Day 7",−77%
same,Vasculature (CD31 MVD),"BLZ945, Day 7",−17%
same,Tumor Volume (Day −1 vs Day 6),"BLZ945, Day 7, start 4.5-40 mm3",+0.68%
same,Apoptosis (% CC3+),"BLZ945 Large, Day 3",+9-fold
same,Macrophages (% CD68+),"BLZ945 Large, Day 3",+2-fold
same,Phagocytic Capacity,"BLZ945 Large, Day 3",+7.1-fold
same,Proliferation (% BrdU+Olig2+),"BLZ945 Large, Day 3",−98%
same,Total DAPI+ Cells,"BLZ945 Large, Day 3",−40%
same,Tumor Cells (% Olig2+),"BLZ945 Large, Day 3",−14%
same,Apoptosis (% CC3+),"BLZ945 Large, Day 7",+2-fold
same,Macrophages (% CD68+),"BLZ945 Large, Day 7",+4-fold
same,Phagocytic Capacity,"BLZ945 Large, Day 7",+6.0-fold
same,Proliferation (% BrdU+Olig2+),"BLZ945 Large, Day 7",−94%
same,Total DAPI+ Cells,"BLZ945 Large, Day 7",−65%
same,Tumor Cells (% Olig2+),"BLZ945 Large, Day 7",−73%
same,Vasculature (CD31 MVD),"BLZ945 Large, Day 7",−67%
same,Tumor Volume (Day −1 vs Day 6),"BLZ945 Large, Day 7, start >40 mm3",−24.3%
same,"mice with >30% reduction in tumor volume (partial response, RECIST)","BLZ945 Large, tumors >40 mm3, 7 day trial",6 of 18
same,reduction of tumor cell proliferation,all groups and time points,67-98%
same,treated mice exhibiting a tumor response (histology),already evident at d3,100%
same,average blood vessel length,both treatment groups compared to vehicle,decreased
same,"average density of Olig2+ tumor cells, of total cells","by d7, both CSF-1R inhibitor groups",< 20%
same,TAM numbers in tumors,compared to vehicle,did not affect TAM numbers
same,increase in apoptosis,d3,9-to 17 fold
same,Iba1+ macrophages that are CSF-1R+ within the tumor,d7,no significant differences
same,"immune cell infiltration, comparisons between treatment groups","day 7, flow cytometry",not significant
same,microglia in adjacent normal brain,"mouse, in vivo",evident microglia depletion
same,pericyte coverage of the vessels,"mouse, in vivo",no significant differences
same,tumor growth (MRI tumor volume),"starting tumor volume 4.5-40 mm3, 7 day trial",significantly halted tumor growth
same,increase in Olig2+CC3+ cells engulfed by CD11b+ macrophages,treated groups,2 to 4 fold
same,increased phagocytic capacity of macrophages,treated groups,5 to 11.5 fold
